Our source for the TGI values is PubChem BioAssay (NCI).

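Five compound concentrations were applied to cells in 96-well plates for 48 hours; endpoints were derived by simple linear interpolation of the resulting dose-response curve. The concentration for full growth arrest is given as TGI.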 Bounds are passed on as bounds.

Some test systems named below: MDA-MB-435; SR leukemia; NCI-H23 lung; MOLT-4 leukemia; COLO 205 colon; ACHN renal; HOP-62 NSCLC; SNB-75 CNS; LOX IMVI melanoma; UACC-62 melanoma; OVCAR-3 ovarian; HOP-92 NSCLC; HT29 colon; M14 melanoma; U251 CNS; MDA-N; MALME-3M melanoma; UACC-257 melanoma; K-562 leukemia.
Assay in all cases: NCI anticancer screen, dose series, 48 h

For the molecule `Cc1ccc(S(=O)(=O)OC2=C/C(=N\c3onc(C)c3C)c3ccccc3C2=O)cc1`, the TGI was 31.8 µM with MDA-MB-435; greater than 100 µM in the assay with SR leukemia; 73.8 µM in the assay on NCI-H23 lung; 24.2 µM with MOLT-4 leukemia; greater than 100 µM with COLO 205 colon; greater than 100 µM in the assay on ACHN renal. The TGI in the assay with HOP-62 NSCLC was 54.8 µM; in the assay with SNB-75 CNS, greater than 100 µM; in the assay on LOX IMVI melanoma, 37.9 µM; in the assay on UACC-62 melanoma, 57.7 µM; in the assay on OVCAR-3 ovarian it was 30.1 µM; with HOP-92 NSCLC it was 33.2 µM. The TGI in the assay on HT29 colon is greater than 100 µM; in the assay on M14 melanoma it was greater than 100 µM; in the assay with U251 CNS, 21.1 µM; in the assay on MDA-N it was greater than 100 µM; in the assay with MALME-3M melanoma it was 43.3 µM; in the assay with UACC-257 melanoma, 34.4 µM. This molecule also gave a TGI in the assay on K-562 leukemia of 18.9 µM.
On to `O=c1[nH]c(-c2cccc(F)c2)nc2ccccc12`, for which the TGI in the assay on MDA-MB-435 is greater than 100 µM; in the assay on SR leukemia it was greater than 100 µM; in the assay on NCI-H23 lung it was greater than 65.8 µM; in the assay with MOLT-4 leukemia, greater than 100 µM; in the assay on COLO 205 colon, greater than 100 µM; in the assay with ACHN renal, greater than 68.7 µM. In addition, the TGI in the assay on HOP-62 NSCLC is 52.4 µM; in the assay with SNB-75 CNS it was 62.7 µM; with LOX IMVI melanoma, greater than 100 µM; with UACC-62 melanoma it was greater than 67.3 µM; in the assay with OVCAR-3 ovarian, greater than 100 µM; in the assay on HOP-92 NSCLC, greater than 72 µM. In addition, the TGI in the assay with HT29 colon, with M14 melanoma, in the assay with U251 CNS, in the assay on MDA-N, in the assay on MALME-3M melanoma and in the assay on UACC-257 melanoma was greater than 100 µM in each case. The same molecule returned a TGI in the assay with K-562 leukemia greater than 100 µM.
Regarding `Cc1ccc2c(c1)C(=O)C(Cc1ccccc1C(=O)O)C2` (centres undefined), the TGI in the assay with MDA-MB-435, in the assay with SR leukemia, in the assay on NCI-H23 lung, in the assay on MOLT-4 leukemia, in the assay on COLO 205 colon and with ACHN renal was greater than 100 µM in each case. Further, the TGI in the assay with HOP-62 NSCLC, in the assay with SNB-75 CNS, in the assay on LOX IMVI melanoma, with UACC-62 melanoma, in the assay with OVCAR-3 ovarian and in the assay with HOP-92 NSCLC was greater than 100 µM in each case. Moreover, the TGI in the assay on HT29 colon, in the assay on M14 melanoma, in the assay on U251 CNS, with MDA-N, with MALME-3M melanoma and with UACC-257 melanoma was greater than 100 µM in each case. Also, the TGI in the assay with K-562 leukemia was greater than 100 µM.
Turning to `C=CC1ON(C)CCc2cc(OC)c(OC)cc21` (centres undefined), the TGI in the assay on MDA-MB-435, with SR leukemia, in the assay on NCI-H23 lung, in the assay with MOLT-4 leukemia, in the assay with COLO 205 colon and in the assay with ACHN renal was greater than 100 µM in each case. Also, the TGI in the assay with HOP-62 NSCLC, in the assay with SNB-75 CNS, in the assay with LOX IMVI melanoma, with UACC-62 melanoma, in the assay on OVCAR-3 ovarian and in the assay with HOP-92 NSCLC was greater than 100 µM each time. Moreover, the TGI with HT29 colon, with M14 melanoma, in the assay with U251 CNS, in the assay with MDA-N, in the assay with MALME-3M melanoma and in the assay with UACC-257 melanoma was greater than 100 µM in each case. In addition, in the assay with K-562 leukemia, the TGI is greater than 100 µM.
`CN(CCCNC(=O)c1cn(C)c2c1ccc1cc(Cl)c(Cl)cc12)CCCNC(=O)c1cn(C)c2c1ccc1cc(Cl)c(Cl)cc12`: the TGI with MDA-MB-435 came out at 26.4 µM; in the assay on SR leukemia, 16.5 µM; in the assay with NCI-H23 lung, 31.4 µM; in the assay with MOLT-4 leukemia, 30.3 µM; in the assay with COLO 205 colon, 9.58 µM; with ACHN renal, 27.2 µM. The TGI in the assay with HOP-62 NSCLC was greater than 57.7 µM; in the assay on SNB-75 CNS, 25.6 µM; with LOX IMVI melanoma, greater than 43.3 µM; in the assay on UACC-62 melanoma, 31.7 µM; in the assay on OVCAR-3 ovarian, greater than 54.9 µM; with HOP-92 NSCLC, 33.4 µM. The TGI in the assay on HT29 colon was 29.4 µM; in the assay with M14 melanoma, 27.5 µM; in the assay on U251 CNS, 11.4 µM; with MDA-N, 36 µM; with MALME-3M melanoma, 31.8 µM; with UACC-257 melanoma, 52.4 µM. Moreover, the TGI in the assay on K-562 leukemia was determined as 26.2 µM.
Consider `NC1CC(=O)c2c(Cl)sc(Cl)c21` (centres undefined), for which the TGI with MDA-MB-435 was 15.5 µM; in the assay with SR leukemia, 1.99 µM; with NCI-H23 lung it was 25 µM; in the assay with MOLT-4 leukemia, 9.37 µM; in the assay on COLO 205 colon, 2.57 µM; with ACHN renal it was 6.14 µM. Also, the TGI was determined as 34 µM with HOP-62 NSCLC; 26.1 µM with SNB-75 CNS; 4.81 µM in the assay with LOX IMVI melanoma; 7.78 µM in the assay on UACC-62 melanoma; 24 µM with OVCAR-3 ovarian; 2.91 µM in the assay with HOP-92 NSCLC. Also, the TGI was 14.1 µM in the assay on HT29 colon; 35.4 µM in the assay on M14 melanoma; 21.5 µM in the assay with U251 CNS; 16.4 µM with MDA-N; 4.66 µM in the assay with MALME-3M melanoma; 7.27 µM in the assay with UACC-257 melanoma. Moreover, in the assay on K-562 leukemia, the TGI worked out at 75 µM.
Regarding `O=c1c2cc([N+](=O)[O-])ccc2n(Cc2ccccc2)n1Cc1ccccc1`, the TGI with MDA-MB-435 is 17.5 µM; with SR leukemia, greater than 31.6 µM; in the assay with NCI-H23 lung, greater than 31.6 µM; in the assay on MOLT-4 leukemia, greater than 31.6 µM; in the assay with COLO 205 colon, greater than 31.6 µM; in the assay on ACHN renal it was greater than 31.6 µM. For the same molecule, the TGI was greater than 31.6 µM in the assay on HOP-62 NSCLC; greater than 31.6 µM in the assay with SNB-75 CNS; greater than 31.6 µM with LOX IMVI melanoma; 21.4 µM in the assay on UACC-62 melanoma; greater than 31.6 µM in the assay with OVCAR-3 ovarian; greater than 31.6 µM in the assay with HOP-92 NSCLC. Moreover, the TGI in the assay on HT29 colon was greater than 31.6 µM; with M14 melanoma it was 20.7 µM; with U251 CNS it was greater than 31.6 µM; in the assay on MDA-N, 21.2 µM; with MALME-3M melanoma, greater than 31.6 µM; in the assay on UACC-257 melanoma it was 19.8 µM. In addition, the TGI in the assay on K-562 leukemia was greater than 31.6 µM.
On to `CC1(C)CC[C@]2(C(=O)O)CC[C@]3(C)C(=CC[C@@H]4[C@@]5(C)C[C@H](O)[C@H](O)[C@@](C)(CO)C5=CC[C@]43C)[C@@H]2C1`, for which the TGI with MDA-MB-435 was greater than 100 µM; with SR leukemia it was greater than 100 µM; in the assay on NCI-H23 lung it was greater than 100 µM; in the assay with MOLT-4 leukemia it was greater than 100 µM; with COLO 205 colon it was 42.4 µM; in the assay on ACHN renal, greater than 100 µM. Further, the TGI in the assay on HOP-62 NSCLC, in the assay with SNB-75 CNS, with LOX IMVI melanoma, with UACC-62 melanoma, with OVCAR-3 ovarian and in the assay on HOP-92 NSCLC was greater than 100 µM throughout. Also, the TGI in the assay with HT29 colon, with M14 melanoma, with U251 CNS, in the assay on MDA-N, in the assay with MALME-3M melanoma and in the assay with UACC-257 melanoma was greater than 100 µM in each case. In the assay with K-562 leukemia, the TGI was greater than 100 µM.
Regarding `N#Cc1c(-c2ccccc2)c(N=Nc2ccc(F)cc2)c(=O)n2c1[nH]c1ccccc12`, the TGI is greater than 100 µM in the assay with MDA-MB-435; 55.8 µM with SR leukemia; greater than 75.7 µM in the assay on NCI-H23 lung; 7.78 µM with MOLT-4 leukemia; 13 µM in the assay on COLO 205 colon; greater than 64.6 µM in the assay on ACHN renal. Moreover, the TGI is 29.3 µM in the assay on HOP-62 NSCLC; 39.4 µM in the assay on SNB-75 CNS; greater than 100 µM in the assay on LOX IMVI melanoma; 26.3 µM with UACC-62 melanoma; 8.57 µM in the assay with OVCAR-3 ovarian; 14.2 µM in the assay with HOP-92 NSCLC. Moreover, the TGI in the assay on HT29 colon was 12 µM; with M14 melanoma, 27.3 µM; with U251 CNS, 18.1 µM; in the assay on MDA-N, 52.9 µM; in the assay on MALME-3M melanoma, 72.5 µM; with UACC-257 melanoma, greater than 100 µM. In the assay on K-562 leukemia, this molecule gave a TGI of 17.9 µM.
Regarding `CC1(C)C=C(/C=N/Nc2ccc([N+](=O)[O-])cc2)C(C#N)=C(O)C1(C#N)C#N`, the TGI in the assay on MDA-MB-435, with SR leukemia, in the assay with NCI-H23 lung, with MOLT-4 leukemia, in the assay with COLO 205 colon and in the assay on ACHN renal was greater than 100 µM each time. The TGI in the assay on HOP-62 NSCLC, in the assay with SNB-75 CNS, in the assay on LOX IMVI melanoma, in the assay on UACC-62 melanoma, with OVCAR-3 ovarian and in the assay on HOP-92 NSCLC was greater than 100 µM in each case. The TGI with HT29 colon, with M14 melanoma, in the assay on U251 CNS, in the assay on MDA-N, with MALME-3M melanoma and in the assay on UACC-257 melanoma was greater than 100 µM throughout. In addition, the TGI in the assay on K-562 leukemia is greater than 100 µM.
For the molecule `Cn1c(=O)c2c(no[n+]2[O-])n(C)c1=O`, the TGI with MDA-MB-435 is 38.3 µM; in the assay on SR leukemia, greater than 100 µM; with NCI-H23 lung, 47.9 µM; in the assay on MOLT-4 leukemia, greater than 100 µM; in the assay on COLO 205 colon, 43.9 µM; in the assay with ACHN renal, greater than 100 µM. Also, the TGI in the assay with HOP-62 NSCLC is 47.3 µM; in the assay with SNB-75 CNS it was 99.2 µM; with LOX IMVI melanoma it was greater than 100 µM; in the assay with UACC-62 melanoma, 40.5 µM; in the assay with OVCAR-3 ovarian, greater than 100 µM; in the assay with HOP-92 NSCLC, 44.1 µM. In addition, the TGI in the assay on HT29 colon was greater than 100 µM; in the assay with M14 melanoma, greater than 100 µM; in the assay on U251 CNS, 49.4 µM; with MDA-N it was 50.7 µM; with MALME-3M melanoma, 40 µM; in the assay on UACC-257 melanoma, 84.6 µM. For the same molecule, the TGI with K-562 leukemia was greater than 100 µM.
